We go through 18 compounds from patent publication US20250367308A1, “LIGAND-DRUG CONJUGATE OF CAMPTOTHECIN ANALOGS, INTERMEDIATES, PREPARATION METHOD THEREFOR, PHARMACEUTICAL COMPOSITION AND APPLICATION THEREOF” (SHANGHAI MICURX PHARMACEUTICAL CO.,LTD., priority 2022, published 2025).

SMILES strings stand for the structures.

For the test, the system named is Human lung adenocarcinoma cell line A549. The test is described as follows: In vitro cytotoxicity test of camptothecin payloads (CellTiter-Glo). In kind it is cell-based. Particulars: Homo sapiens, A549, 72 h, read-out: A549 Cytotoxicity IC50 (nM). The procedure:
Human lung adenocarcinoma cell line A549 was used to evaluate the cytotoxicity of small molecule fragment of the present invention. A549 cells were seeded to a 96-well plate at 2000 cells per well.
With `CC[C@@]1(O)C(=O)OCc2c1cc1n(c2=O)Cc2c-1nc1cc(F)c(C)cc1c2CN1CC2C(C1CO)C2(C)C` (stereo partly drawn) [Example 23, (4S)-4-ethyl-8-fluoro-4-hydroxy-11-((2-(hydroxymethyl)-6,6-dimethyl-3-azabicyclo[3.1.0]hexan-3-yl)methyl)-9-methyl-1H-pyrano[3′,4′:6,7] indolizino[1,2-b]quinoline-3,14(4H,12H)-dione], the half-inhibitory concentration (IC50) came to 49 nM. As for `CC[C@@]1(O)C(=O)OCc2c1cc1n(c2=O)Cc2c-1nc1cc(F)c(C)cc1c2CN1CCC(C)(CO)C1` (stereo partly drawn) [Example 24, (4S)-4-ethyl-8-fluoro-4-hydroxy-11-((3-(hydroxymethyl)-3-methylpyrrolidin-1-yl)methyl)-9-methyl-1H-pyrano[3′,4′:6,7] indolizino[1,2-b]quinoline-3,14(4H,12H)-dione], the 50% inhibitory concentration (IC50) is 43 nM. Then `CC[C@@]1(O)C(=O)OCc2c1cc1n(c2=O)Cc2c-1nc1cc(F)c(C)cc1c2CN1CCC(CCO)CC1` [Example 27, (S)-4-ethyl-8-fluoro-4-hydroxy-11-((4-(2-hydroxyethyl)piperidin-1-yl)methyl)-9-methyl-1H-pyrano[3′,4′:6,7] indolizino[1,2-b]quinoline-3,14(4H,12H)-dione], with 16.8 nM; and `CC[C@@]1(O)C(=O)OCc2c1cc1n(c2=O)Cc2c-1nc1cc(F)c(C)cc1c2CN1CCC(C(O)C(C)C)CC1` (stereo partly drawn) [Example 28, (4S)-4-ethyl-8-fluoro-4-hydroxy-11-((4-(1-hydroxy-2-methylpropyl)piperidin-1-yl)methyl)-9-methyl-1H-pyrano[3′,4′:6,7] indolizino[1,2-b]quinoline-3,14(4H,12H)-dione], with 74.2 nM. On to `CC[C@@]1(O)C(=O)OCc2c1cc1n(c2=O)Cc2c-1nc1cc(F)c(C)cc1c2CN1CCC(C(O)C(F)(F)F)CC1` (stereo partly drawn) [Example 29, (4S)-4-ethyl-8-fluoro-4-hydroxy-9-methyl-11-((4-(2,2,2-trifluoro-1-hydroxyethyl)piperidin-1-yl)methyl)-1H-pyrano[3′,4′:6,7] indolizino[1,2-b]quinoline-3,14(4H,12H)-dione], for which the IC50 stood at 29.8 nM. As to `CC[C@@]1(O)C(=O)OCc2c1cc1n(c2=O)Cc2c-1nc1cc(F)c(C)cc1c2CN1CCC(C2(O)CCC2)CC1` [Example 30, (S)-4-ethyl-8-fluoro-4-hydroxy-11-((4-(1-hydroxycyclobutyl)piperidin-1-yl)methyl)-9-methyl-1H-pyrano[3′,4′:6,7] indolizino[1,2-b]quinoline-3,14(4H,12H)-dione], the IC50 is 28.6 nM. Take `CC[C@@]1(O)C(=O)OCc2c1cc1n(c2=O)Cc2c-1nc1cc(F)c(C)cc1c2CN1CCC2(CC1)CC(O)C2` [Example 31, (S)-4-ethyl-8-fluoro-4-hydroxy-11-((2-hydroxy-7-azaspiro[3.5]nonan-7-yl)methyl)-9-methyl-1H-pyrano[3′,4′:6,7] indolizino[1,2-b]quinoline-3,14(4H,12H)-dione]: the half-maximal inhibitory concentration (IC50) amounted to 12.5 nM.

On to `CC[C@@]1(O)C(=O)OCc2c1cc1n(c2=O)Cc2c-1nc1cc(F)c(C)cc1c2CN1CCC2(CCC2O)CC1` (stereo partly drawn) [Example 32, (4S)-4-ethyl-8-fluoro-4-hydroxy-11-((1-hydroxy-7-azaspiro[3.5]nonan-7-yl)methyl)-9-methyl-1H-pyrano[3′,4′:6,7] indolizino[1,2-b]quinoline-3,14(4H,12H)-dione], for which the IC50 is 12.6 nM. On to `CC[C@@]1(O)C(=O)OCc2c1cc1n(c2=O)Cc2c-1nc1cc(F)c(C)cc1c2CN1C[C@H]2CC[C@@H](C1)C2O` (stereo partly drawn) [Example 33, (4S)-4-ethyl-8-fluoro-4-hydroxy-11-(((1R,5S)-8-hydroxy-3-azabicyclo[3.2.1]octan-3-yl)methyl)-9-methyl-1H-pyrano[3′,4′:6,7] indolizino[1,2-b]quinoline-3,14(4H,12H)-dione], for which the IC50 came out at 12.9 nM. The same measure for `CC[C@@]1(O)C(=O)OCc2c1cc1n(c2=O)Cc2c-1nc1cc3c(cc1c2CN1CCC([C@@H](C)O)CC1)OCCO3` [Example 36]: 38.4 nM; for `CC[C@@]1(O)C(=O)OCc2c1cc1n(c2=O)Cc2c-1nc1cc(F)c(F)cc1c2CN1CCC([C@@H](C)O)CC1` [Example 37, (S)-4-ethyl-8,9-difluoro-4-hydroxy-11-((4-((R)-1-hydroxyethyl)piperidin-1-yl)methyl)-1,12-dihydro-14H-pyrano[3′,4′:6,7] indolizino[1,2-b]quinoline-3,14(4H)-dione]: 29 nM; for `CC[C@@]1(O)C(=O)OCc2c1cc1n(c2=O)Cc2c-1nc1ccc(O)cc1c2CN1CCC([C@@H](C)O)CC1` [Example 38, (S)-4-ethyl-4,9-dihydroxy-11-((4-((R)-1-hydroxyethyl)piperidin-1-yl)methyl)-1,12-dihydro-14H-pyrano[3′,4′:6,7] indolizino[1,2-b]quinoline-3,14(4H)-dione]: 1250 nM. Consider `CC[C@@]1(O)C(=O)OCc2c1cc1n(c2=O)Cc2c-1nc1cc(F)c(C)cc1c2C(C)N1CCC([C@@H](C)O)CC1` (stereo partly drawn) [Example 39, (4S)-4-ethyl-8-fluoro-4-hydroxy-11-(1-(4-((R)-1-hydroxyethyl)piperidin-1-yl)ethyl)-9-methyl-1,12-dihydro-14H-pyrano[3′,4′:6,7] indolizino[1,2-b]quinoline-3,14(4H)-dione], for which the IC50 amounted to 128 nM. Then `CC[C@@]1(O)C(=O)OCc2c1cc1n(c2=O)Cc2c-1nc1ccc(OCC(=O)N3CCCCC3)cc1c2CN1CCC([C@@H](C)O)CC1` [Example 40, (S)-4-ethyl-4-hydroxy-11-((4-((R)-1-hydroxyethyl)piperidin-1-yl)methyl)-9-(2-oxo-2-(piperidin-1-yl)ethoxy)-1,12-dihydro-14H-pyrano[3′,4′:6,7] indolizino[1,2-b]quinoline-3,14(4H)-dione], with 1290 nM. Turning to `CC[C@@]1(O)C(=O)OCc2c1cc1n(c2=O)Cc2c-1nc1cc(F)c(OC)cc1c2CN1CCC([C@@H](C)O)CC1` [Example 41, (S)-4-ethyl-8-fluoro-4-hydroxy-11-((4-((R)-1-hydroxyethyl)piperidin-1-yl)methyl)-9-methoxy-1,12-dihydro-14H-pyrano[3′,4′:6,7] indolizino[1,2-b]quinoline-3,14(4H)-dione], the half-maximal inhibitory concentration (IC50) turned out to be 31 nM.

Turning to `CC[C@@]1(O)C(=O)OCc2c1cc1n(c2=O)Cc2c-1nc1cc3c(cc1c2CN1CCC2(CC1)CC(O)C2)OCCO3` [Example 44], the concentration for half-maximal inhibition (IC50) is 30 nM. Then `CC[C@@]1(O)C(=O)OCc2c1cc1n(c2=O)Cc2c-1nc1cc3c(cc1c2CN1C[C@@H]2CCC[C@@H]2[C@H]1CO)OCCO3` [Example 45], with 53 nM; and `CC[C@@]1(O)C(=O)OCc2c1cc1n(c2=O)Cc2c-1nc1cc(F)c(C)cc1c2CN1C[C@H]2C[C@@H](C1)C2O` (stereo partly drawn) [Example 47, (4S)-4-ethyl-8-fluoro-4-hydroxy-11-(((1R,5S)-6-hydroxy-3-azabicyclo[3.1.1]heptan-3-yl)methyl)-9-methyl-1,12-dihydro-14H-pyrano[3',4':6,7] indolizino[1,2-b]quinoline-3,14(4H)-dione], with 28 nM.
